What was measured:
[1] = target: T1, orexin-2 receptor (hOX2R) (Homo sapiens, UniProt O43614); test: Measurement of orexin antagonistic activity (intracellular Ca2+ fluorescence, FDSS) on hOX2R; assay type: cell-based; details: CHO cells forcibly expressing hOX2R; Fluo-4AM; ligand peptide (substituted human orexin-A) 3 nM; compound preincubated 30 minutes; read-out: IC50 Value OX2
T1 construct: expressed in transfected cells; host or cells: Chinese hamster ovary (CHO) cells
T1 sequence (O43614 1-444): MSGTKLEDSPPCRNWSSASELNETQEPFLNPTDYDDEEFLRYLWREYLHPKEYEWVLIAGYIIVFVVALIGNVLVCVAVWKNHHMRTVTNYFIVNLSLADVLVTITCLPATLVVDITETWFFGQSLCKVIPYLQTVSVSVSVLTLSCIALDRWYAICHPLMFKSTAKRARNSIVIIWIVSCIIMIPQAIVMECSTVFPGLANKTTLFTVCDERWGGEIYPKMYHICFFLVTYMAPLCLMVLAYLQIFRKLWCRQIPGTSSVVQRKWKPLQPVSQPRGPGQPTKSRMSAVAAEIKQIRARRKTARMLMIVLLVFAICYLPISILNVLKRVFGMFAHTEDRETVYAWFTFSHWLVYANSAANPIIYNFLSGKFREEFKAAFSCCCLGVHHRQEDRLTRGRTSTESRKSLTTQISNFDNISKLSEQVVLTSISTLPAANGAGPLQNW
Summary of the method: (§1)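 CHO cells stably expressing hOX1R or hOX2R, loaded with 0.5 μM Fluo-4AM in HEPES/HBSS buffer with 0.1% BSA and 2.5 mM probenecid, pH 7.4, then preincubated 30 min with compound. Fluorescence recorded each second for 3 min by FDSS; maximum intensity taken as intracellular Ca2+ indicator of antagonism.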

[2] = target: T2, human orexin-1 receptor (hOX1R) (Homo sapiens, UniProt O43613); test: Measurement of orexin antagonistic activity (intracellular Ca2+ fluorescence, FDSS) on hOX1R; assay type: cell-based; details: CHO cells forcibly expressing hOX1R; Fluo-4AM; ligand peptide (substituted human orexin-A) 300 pM; compound preincubated 30 minutes; read-out: IC50 Value OX1
T2 construct: expressed in transfected cells; host or cells: Chinese hamster ovary (CHO) cells
T2 sequence (O43613 1-425): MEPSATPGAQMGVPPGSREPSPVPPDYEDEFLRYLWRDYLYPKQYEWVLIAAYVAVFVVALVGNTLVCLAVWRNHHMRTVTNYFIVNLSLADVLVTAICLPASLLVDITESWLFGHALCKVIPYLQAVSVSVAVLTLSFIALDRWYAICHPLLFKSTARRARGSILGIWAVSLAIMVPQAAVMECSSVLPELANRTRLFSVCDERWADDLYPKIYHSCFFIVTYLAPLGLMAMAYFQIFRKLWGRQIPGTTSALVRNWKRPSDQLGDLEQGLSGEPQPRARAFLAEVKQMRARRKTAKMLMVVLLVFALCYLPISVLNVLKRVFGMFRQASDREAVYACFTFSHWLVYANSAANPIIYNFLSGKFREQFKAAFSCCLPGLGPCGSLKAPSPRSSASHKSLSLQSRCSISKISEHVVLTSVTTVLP
Summary of the method: as §1

| SMILES | IC50 [1] [nM] | IC50 [2] [nM] |
| --- | --- | --- |
| CCN(C(=O)c1cc(C)ccc1-n1nccn1)[C@@H](C)Cn1cc(-c2ccc(F)cc2)nn1 [Example 71, N-Ethyl-N-{(2S)-1-[4-(4-fluorophenyl)-1H-1,2,3-triazol-1-yl]propan-2-yl}-5-methyl-2-(2H-1,2,3-triazol-2-yl)benzamide] | 21.8 | 1.3 |
| COCCN(C(=O)c1cc(C)ccc1-n1nccn1)[C@@H](C)Cn1cc(-c2ccc(F)cc2)nn1 [Example 72, N-{(2S)-1-[4-(4-Fluorophenyl)-1H-1,2,3-triazol-1-yl]propan-2-yl}-N-(2-methoxyethyl)-5-methyl-2-(2H-1,2,3-triazol-2-yl)benzamide] | 401 | 102 |
| Cc1ccc(-n2nccn2)c(C(=O)N(CCO)[C@@H](C)Cn2cc(-c3ccc(F)cc3)nn2)c1 [Example 73, N-{(2S)-1-[4-(4-Fluorophenyl)-1H-1,2,3-triazol-1-yl]propan-2-yl}-N-(2-hydroxyethyl)-5-methyl-2-(2H-1,2,3-triazol-2-yl)benzamide] | 5.7 | 80.3 |
| CCN(C(=O)c1cc(C)ccc1-n1nccn1)C(C)Cc1cnn(-c2ccc(F)cn2)c1 (stereo not drawn) [Example 74, N-Ethyl-N-{1-[1-(5-fluoropyridin-2-yl)-1H-pyrazol-4-yl]propan-2-yl}-5-methyl-2-(2H-1,2,3-triazol-2-yl)benzamide] | 13.1 | 1.3 |
| CCN(C(=O)c1cc(C)ccc1-n1nccn1)C(C)Cc1ccn(-c2ccc(F)cn2)n1 (stereo not drawn) [Example 75, N-Ethyl-N-{1-[1-(5-fluoropyridin-2-yl)-1H-pyrazol-3-yl]propan-2-yl}-5-methyl-2-(2H-1,2,3-triazol-2-yl) benzamide] | 1.7 | 1.4 |
| CCN(C(=O)c1cc(C)ccc1-n1nccn1)[C@@H](C)Cc1nnc(-c2ccc(F)cc2)o1 [Example 76, N-Ethyl-N-{(2S)-1-[5-(4-fluorophenyl)-1,3,4-oxadiazol-2-yl]propan-2-yl}-5-methyl-2-(2H-1,2,3-triazol-2-yl)benzamide] | 59.7 | 1 |
| CCN(C(=O)c1nc(C)ccc1-n1nccn1)[C@@H](C)Cn1cc(-c2ccc(F)cn2)nn1 [Example 77, N-Ethyl-N-{(2S)-1-[4-(5-fluoropyridin-2-yl)-1H-1,2,3-triazol-1-yl]propan-2-yl}-6-methyl-3-(2H-1,2,3-triazol-2-yl)pyridine-2-carboxamide] | 1450 | 48.8 |
| CCN(C(=O)c1cc(F)ccc1-n1nccn1)[C@@H](C)Cn1cc(-c2ccc(F)cn2)nn1 [Example 78, N-Ethyl-5-fluoro-N-{(2S)-1-[4-(5-fluoropyridin-2-yl)-1H-1,2,3-triazol-1-yl]propan-2-yl}-2-(2H-1,2,3-triazol-2-yl)benzamide] | 593 | 20.9 |

Other lines, results leading:

| IC50 [1] [nM] | IC50 [2] [nM] | SMILES |
| --- | --- | --- |
| 427 | 63.6 | CCN(C(=O)c1cc(C)ccc1-c1ncccn1)[C@@H](C)Cn1cc(-c2ccc(F)cn2)nn1 [Example 79, N-Ethyl-N-{(2S)-1-[4-(5-fluoropyridin-2-yl)-1H-1,2,3-triazol-1-yl]propan-2-y}-5-methyl-2-(pyrimidin-2-yl)benzamide] |
| 7810 | 687 | CCN(C(=O)c1nc(C)ccc1-c1ncccn1)[C@@H](C)Cn1cc(-c2ccc(F)cn2)nn1 [Example 80, N-Ethyl-N-{(2S)-1-[4-(5-fluoropyridin-2-yl)-1H-1,2,3-triazol-1-yl]propan-2-yl}-6-methyl-3-(pyrimidin-2-yl)pyridine-2-carboxamide] |
| 3150 | 177 | CCN(C(=O)c1cc(F)ccc1-c1ncccn1)[C@@H](C)Cn1cc(-c2ccc(F)cn2)nn1 [Example 81, N-Ethyl-5-fluoro-N-{(2S)-1-[4-(5-fluoropyridin-2-yl)-1H-1,2,3-triazol-1-yl]propan-2-yl}-2-(pyrimidin-2-yl) benzamide] |
| 13.3 | 2.2 | CCN(C(=O)c1cc(C)ccc1-n1nccn1)[C@@H](C)Cn1cc(-c2ccc(F)cn2)nn1 [Example 82, N-Ethyl-N-{(2S)-1-[4-(5-fluoropyridin-2-yl)-1H-1,2,3-triazol-1-yl]propan-2-yl}-5-methyl-2-(2H-1,2,3-triazol-2-yl)benzamide] |

Reference: patent US20150166523A1, “BRANCHED CHAIN ALKYL HETEROAROMATIC RING DERIVATIVE” (TAISHO PHARMACEUTICAL CO., LTD., priority 2012, published 2015)
